According to publication PMC2248166, “Quantitative peptide binding motifs for 19 human and mouse MHC class I molecules derived using positional scanning combinatorial peptide libraries” (Immunome Research, 2008):

Experiments:
Format in all cases: binding
[1] = molecular target: HLA B*5401 (Homo sapiens, UniProt P01889, A329T/C349S/D138N/D201E/E176V/E187T/E204Q/E69G/I76V/K202T/L119W/R155S/R180L/S121T/S35A/S48A/V127L/V306I/V36M/Y140L)
[2] = molecular target: HLA A*6802 (Homo sapiens, UniProt P04439, A269V/D140Y/D185E/E176V/E277Q/E87N/F33Y/G231S/I121R/I166T/I218V/L180W/L300P/L318F/N151K/P208A/P217A/Q86R/R138H/R169H/S129P/T345S/V36M)
[3] = molecular target: HLA B*5101 (Homo sapiens, UniProt P01889, A329T/A93T/A95T/C349S/D138N/D201E/D98Y/E187L/E204Q/E69T/G107R/I218V/K202T/L105A/L119W/N104I/Q94N/R106L/R155S/R180L/S101N/S121T/S35A/S48A/V306I/V36M/Y195H/Y91F)
[4] = molecular target: HLA B*1501 (Homo sapiens, UniProt P01889, A329T/A93T/A95T/C349S/D201E/D98Y/E187L/E204Q/E69M/E70A/K202T/N87E/Q94N/R155S/R180W/S121R/S35A/S48A/V306I/V36M/Y140S/Y91S); assay: biochemical
[5] = molecular target: H-2 D^b (Mus musculus, UniProt P01899)
H-2 D^b, sequence (P01887 21-119): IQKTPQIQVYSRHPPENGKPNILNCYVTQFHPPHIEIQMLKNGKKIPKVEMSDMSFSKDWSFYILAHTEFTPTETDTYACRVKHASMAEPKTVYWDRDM
H-2 D^b, sequence (P01899 25-362): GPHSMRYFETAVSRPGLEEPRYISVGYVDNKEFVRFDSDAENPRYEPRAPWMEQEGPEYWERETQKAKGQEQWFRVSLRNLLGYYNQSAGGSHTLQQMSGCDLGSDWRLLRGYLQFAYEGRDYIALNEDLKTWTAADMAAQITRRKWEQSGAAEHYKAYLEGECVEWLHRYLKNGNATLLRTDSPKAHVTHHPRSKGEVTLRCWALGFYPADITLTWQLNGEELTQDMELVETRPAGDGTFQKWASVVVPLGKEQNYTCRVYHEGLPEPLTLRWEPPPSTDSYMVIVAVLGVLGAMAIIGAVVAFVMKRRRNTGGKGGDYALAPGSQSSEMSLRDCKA

[6] = molecular target: H-2 D^d (Mus musculus, UniProt P01900)
H-2 D^d, sequence (P01900 whole entry, looked up): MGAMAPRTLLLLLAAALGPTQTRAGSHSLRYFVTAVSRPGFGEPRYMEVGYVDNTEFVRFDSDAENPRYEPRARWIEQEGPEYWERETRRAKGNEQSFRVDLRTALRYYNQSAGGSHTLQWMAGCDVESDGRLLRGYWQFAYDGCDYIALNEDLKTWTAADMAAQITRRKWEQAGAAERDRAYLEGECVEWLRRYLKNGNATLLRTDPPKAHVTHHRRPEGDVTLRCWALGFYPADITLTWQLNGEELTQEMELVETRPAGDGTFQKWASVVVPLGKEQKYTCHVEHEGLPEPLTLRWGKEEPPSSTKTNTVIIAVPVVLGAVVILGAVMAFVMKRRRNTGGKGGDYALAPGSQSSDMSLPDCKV

[7] = molecular target: HLA A*3001 (Homo sapiens, UniProt P04439, D140H/D185E/E176W/F33S/G80R/H175R/K168Q/R138E/R41S); assay: biochemical
[8] = molecular target: HLA B*3501 (Homo sapiens, UniProt P01889, A329T/A93T/A95T/C349S/D201E/D98Y/E176V/E187L/E204Q/E69T/I218V/K202T/L119I/Q94N/R155S/R180L/S121R/S35A/S48A/T118I/V127L/V306I/V36M/Y140S/Y91F)
[9] = molecular target: HLA B*5802 (Homo sapiens, UniProt P01889, A329T/C349S/D201E/D98Y/E176V/E187L/E204Q/E69T/G107R/I218V/I90N/K202T/L105A/N104I/N87E/Q89R/Q94S/R106L/R155S/R180L/R86G/S101N/S121W/S35A/S48A/V127L/V306I/V36M/Y140S/Y91M)
[10] = molecular target: H-2 K^d (Mus musculus, UniProt P01902)
H-2 K^d, sequence (P01887 21-119): as the sequence (P01887 21-119) above
H-2 K^d, sequence (P01902 22-368): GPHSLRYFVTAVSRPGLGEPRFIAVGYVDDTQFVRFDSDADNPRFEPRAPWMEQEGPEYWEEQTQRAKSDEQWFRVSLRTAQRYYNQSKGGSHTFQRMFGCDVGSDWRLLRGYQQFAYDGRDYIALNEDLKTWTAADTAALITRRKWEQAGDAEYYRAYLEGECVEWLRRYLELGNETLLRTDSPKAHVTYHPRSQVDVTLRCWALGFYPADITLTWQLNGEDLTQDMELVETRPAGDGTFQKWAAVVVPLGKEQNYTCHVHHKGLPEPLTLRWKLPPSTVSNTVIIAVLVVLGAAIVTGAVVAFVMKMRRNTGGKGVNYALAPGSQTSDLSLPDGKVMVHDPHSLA

[11] = molecular target: HLA A*3201 (Homo sapiens, UniProt P04439, A270S/D101S/D185E/E176V/E277Q/F133L/G103R/G107R/G231S/H175R/I121M/I218V/I322F/K168Q/L105A/L300P/L318F/M331R/P208A/P217A/Q94H/R106L/R138Q/S129P/T104I/T323A/T345S/V100E/V321M/V358M); assay: biochemical
[12] = molecular target: HLA B*1503 (Homo sapiens, UniProt P01889, A329T/A93T/A95T/C349S/D201E/D98Y/E187L/E204Q/K202T/N87E/Q94N/R155S/R180L/S121R/S35A/V306I/V36M/Y140S/Y91S); assay: biochemical
[13] = molecular target: HLA B*5801 (Homo sapiens, UniProt P01889, A329T/C349S/D201E/D98Y/E176V/E187L/E204Q/E69T/G107R/I218V/I90N/K202T/L105A/L119I/N104I/N87E/Q89R/Q94S/R106L/R155S/R180L/R86G/S101N/S121R/S35A/S48A/T118I/V127L/V306I/V36M/Y140S/Y91M)
[14] = molecular target: HLA B*5301 (Homo sapiens, UniProt P01889, A329T/A93T/A95T/C349S/D201E/D98Y/E176V/E187L/E204Q/E69T/G107R/I218V/K202T/L105A/L119I/N104I/Q94N/R106L/R155S/R180L/S101N/S121R/S35A/S48A/T118I/V127L/V306I/V36M/Y140S/Y91F)
[15] = molecular target: HLA B*0801 (Homo sapiens, UniProt P01889, A93T/A95T/D138N/E176V/E187T/K202T/Q94N/R180D/S35A/V36M/Y33D/Y91F); assay: biochemical
[16] = molecular target: H-2 K^k (Mus musculus, UniProt P04223)
H-2 K^k, sequence (P01887 21-119): as the sequence (P01887 21-119) above
H-2 K^k, sequence (P04223 22-369): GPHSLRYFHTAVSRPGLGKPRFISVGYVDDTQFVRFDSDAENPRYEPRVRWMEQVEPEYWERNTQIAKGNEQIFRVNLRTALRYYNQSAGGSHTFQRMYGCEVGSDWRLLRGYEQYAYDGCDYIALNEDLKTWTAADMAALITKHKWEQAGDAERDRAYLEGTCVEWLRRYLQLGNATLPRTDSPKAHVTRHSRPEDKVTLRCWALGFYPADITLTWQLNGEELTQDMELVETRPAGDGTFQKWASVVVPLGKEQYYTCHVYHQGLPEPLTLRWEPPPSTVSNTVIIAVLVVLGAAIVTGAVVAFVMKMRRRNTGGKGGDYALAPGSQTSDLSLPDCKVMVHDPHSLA

Sequence | Normalized average relative binding affinity(ARB) [1] | Normalized average relative binding affinity(ARB) [2] | Normalized average relative binding affinity(ARB) [3] | Normalized average relative binding affinity(ARB) [4] | Normalized average relative binding affinity(ARB) [5] | Normalized average relative binding affinity(ARB) [6] | Normalized average relative binding affinity(ARB) [7] | Normalized average relative binding affinity(ARB) [8] | Normalized average relative binding affinity(ARB) [9] | Normalized average relative binding affinity(ARB) [10] | Normalized average relative binding affinity(ARB) [11] | Normalized average relative binding affinity(ARB) [12] | Normalized average relative binding affinity(ARB) [13] | Normalized average relative binding affinity(ARB) [14] | Normalized average relative binding affinity(ARB) [15] | Normalized average relative binding affinity(ARB) [16]
XXXXAXXXX [3064.0081] | 0.29 | 0.48 | 1.0 | 0.64 | 0.046 | 0.37 | 0.48 | 0.57 | 0.56 | 0.37 | 0.14 | 1.0 | 0.28 | 0.13 | 0.029 | 0.14
XXXXCXXXX [3064.0082] | 0.39 | 0.65 | 0.38 | 0.87 | 0.060 | 0.045 | 0.12 | 0.37 | 0.53 | 0.19 | 0.15 | 0.62 | 0.14 | 0.13 | 0.020 | 0.095
XXXXDXXXX [3064.0083] | 0.27 | 0.20 | 0.34 | 0.17 | 0.058 | 0.049 | 0.041 | 0.25 | 0.12 | 0.15 | 0.043 | 0.23 | 0.11 | 0.13 | 0.0054 | 0.026
XXXXEXXXX [3064.0084] | 0.26 | 0.20 | 0.20 | 0.42 | 0.021 | 0.059 | 0.099 | 0.34 | 0.23 | 0.031 | 0.066 | 0.41 | 0.21 | 0.15 | 0.014 | 0.11
XXXXFXXXX [3064.0085] | 1.0 | 0.87 | 0.29 | 0.52 | 0.044 | 0.16 | 0.38 | 0.63 | 0.089 | 0.13 | 1.0 | 0.78 | 0.43 | 1.0 | 0.21 | 0.19
XXXXGXXXX [3064.0086] | 0.19 | 1.0 | 0.31 | 0.77 | 0.064 | 0.11 | 0.29 | 0.35 | 0.37 | 0.30 | 0.31 | 0.65 | 0.38 | 0.32 | 0.029 | 0.17
XXXXHXXXX [3064.0087] | 0.19 | 0.46 | 0.35 | 0.66 | 0.066 | 0.64 | 0.14 | 0.19 | 0.74 | 0.064 | 0.14 | 0.32 | 0.21 | 0.091 | 0.65 | 0.022
XXXXIXXXX [3064.0088] | 0.13 | 0.88 | 0.33 | 0.32 | 0.020 | 0.28 | 0.20 | 0.26 | 0.79 | 0.19 | 0.59 | 0.12 | 0.34 | 0.30 | 0.080 | 0.24
